Measurements reported in PubChem BioAssay (NCI).
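The concentration for 50% growth inhibition is given as GI50. At the TGI there is no net growth.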

Columns and labels:
Test in all cases: inhibition of tumour cell growth, NCI panel, 384-well format
SN12C renal = tested on: SN12C renal
IGROV1 ovarian = tested on: IGROV1 ovarian
BT-549 breast = tested on: BT-549 breast
K-562 leukemia = tested on: K-562 leukemia
SNB-19 CNS = tested on: SNB-19 CNS
NCI-H460 NSCLC = tested on: NCI-H460 NSCLC
OVCAR-3 ovarian = tested on: OVCAR-3 ovarian
ACHN renal = tested on: ACHN renal
EKVX NSCLC = tested on: EKVX NSCLC
UACC-257 melanoma = tested on: UACC-257 melanoma
KM12 colon = tested on: KM12 colon
M14 melanoma = tested on: M14 melanoma
HCT-116 colon = tested on: HCT-116 colon
HCC-2998 colon = tested on: HCC-2998 colon
DU-145 prostate = tested on: DU-145 prostate
CAKI-1 renal = tested on: CAKI-1 renal
UO-31 renal = tested on: UO-31 renal
MCF7 breast = tested on: MCF7 breast
LOX IMVI melanoma = tested on: LOX IMVI melanoma
NCI-H322M lung = tested on: NCI-H322M lung
SK-MEL-28 melanoma = tested on: SK-MEL-28 melanoma
OVCAR-4 ovarian = tested on: OVCAR-4 ovarian
HT29 colon = tested on: HT29 colon
HOP-92 NSCLC = tested on: HOP-92 NSCLC
OVCAR-8 ovarian = tested on: OVCAR-8 ovarian
SK-OV-3 ovarian = tested on: SK-OV-3 ovarian
NCI-H522 lung = tested on: NCI-H522 lung
NCI/ADR-RES ovarian = tested on: NCI/ADR-RES ovarian

Question: What does the source list for `COc1cccc2c1ccc1nc3cccc(C(=O)N[C@H](C)CN(C)C)c3nc12`?
Answer: GI50 (SN12C renal): 77.4 nM; TGI (SN12C renal): 249 nM; GI50 (IGROV1 ovarian): 61.9 nM; TGI (IGROV1 ovarian): 609 nM; GI50 (BT-549 breast): 125 nM; TGI (BT-549 breast): 268 nM; GI50 (K-562 leukemia): 45.4 nM; TGI (K-562 leukemia): 156 nM; GI50 (SNB-19 CNS): 75.2 nM; TGI (SNB-19 CNS): 1050 nM; GI50 (NCI-H460 NSCLC): 34.4 nM; TGI (NCI-H460 NSCLC): 112 nM; GI50 (OVCAR-3 ovarian): 72.9 nM; TGI (OVCAR-3 ovarian): 292 nM; GI50 (ACHN renal): 28.3 nM; TGI (ACHN renal): 243 nM; GI50 (EKVX NSCLC): 156 nM; TGI (EKVX NSCLC): 380 nM; GI50 (UACC-257 melanoma): 104 nM; TGI (UACC-257 melanoma): 230 nM; GI50 (KM12 colon): 84.7 nM; TGI (KM12 colon): 881 nM; GI50 (M14 melanoma): 101 nM; TGI (M14 melanoma): 225 nM; GI50 (HCT-116 colon): 35.3 nM; TGI (HCT-116 colon): 1080 nM; GI50 (HCC-2998 colon): 41.4 nM; TGI (HCC-2998 colon): 162 nM; GI50 (DU-145 prostate): 69.2 nM; TGI (DU-145 prostate): 524 nM; GI50 (CAKI-1 renal): 37.3 nM; TGI (CAKI-1 renal): 2720 nM; GI50 (UO-31 renal): 56.1 nM; TGI (UO-31 renal): 398 nM; GI50 (MCF7 breast): 46.7 nM; TGI (MCF7 breast): 1100 nM; GI50 (LOX IMVI melanoma): 45.9 nM; TGI (LOX IMVI melanoma): 155 nM; GI50 (NCI-H322M lung): 115 nM; TGI (NCI-H322M lung): 361 nM; GI50 (SK-MEL-28 melanoma): 123 nM; TGI (SK-MEL-28 melanoma): 291 nM; GI50 (OVCAR-4 ovarian): 130 nM; TGI (OVCAR-4 ovarian): 388 nM; GI50 (HT29 colon): 103 nM; TGI (HT29 colon): 11800 nM; GI50 (HOP-92 NSCLC): 92 nM; TGI (HOP-92 NSCLC): 1620 nM; GI50 (OVCAR-8 ovarian): 96.8 nM; TGI (OVCAR-8 ovarian): 273 nM; GI50 (SK-OV-3 ovarian): 85 nM; TGI (SK-OV-3 ovarian): 430 nM; GI50 (NCI-H522 lung): 102 nM; TGI (NCI-H522 lung): 278 nM; GI50 (NCI/ADR-RES ovarian): 55.2 nM; TGI (NCI/ADR-RES ovarian): 215 nM
